# Test results as given in patent publication US20090069373A1, “Quinoline Acids” (Wyeth, priority 2007, published 2009).
# Legend:
# human LXRβ = molecular target: T1, human LXRβ (Homo sapiens, UniProt P55055); assay: Ligand-binding test procedure for human LXRβ (3H T0901317 competition, flash plates); details: for Binding ratio a/b: IC50 (μM) LXRα binding/IC50 (μM) LXRβ binding; for IC50: biotinylated hLXRβ, tracer 3H T0901317
# T1 construct: biotin (biotinylated; biotinylation tag not described); made in house; host or cells: E. coli
# T1 sequence (P55055 1-460): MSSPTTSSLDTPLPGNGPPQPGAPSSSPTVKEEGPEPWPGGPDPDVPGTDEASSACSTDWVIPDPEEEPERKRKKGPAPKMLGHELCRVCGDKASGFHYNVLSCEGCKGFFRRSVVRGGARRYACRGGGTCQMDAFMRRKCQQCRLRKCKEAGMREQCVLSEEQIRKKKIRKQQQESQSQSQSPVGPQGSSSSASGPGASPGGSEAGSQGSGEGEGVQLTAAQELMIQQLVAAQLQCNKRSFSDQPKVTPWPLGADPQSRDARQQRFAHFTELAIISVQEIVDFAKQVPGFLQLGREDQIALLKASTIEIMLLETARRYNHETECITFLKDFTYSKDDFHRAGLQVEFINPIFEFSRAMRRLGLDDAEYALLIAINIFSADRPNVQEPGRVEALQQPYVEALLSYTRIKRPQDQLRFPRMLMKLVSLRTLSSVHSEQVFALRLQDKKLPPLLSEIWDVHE
# Experimental: Ligand-Binding Test Procedure for Human LXRβ.
# Receptor source: E. coli extract from cells expressing biotinylated hLXRβ. Extract was made in a similar buffer as above, but with 50 mM TRIS.
# (§1) Washed streptavidin and coated flash plates with wash buffer.
# (§2) Diluted receptor extract to give Bmax ˜4000 cpm and add to the wells.
# (§3) Wrapped the plates in aluminum foil and stored them at +4° C. over night.
# (§4) Made a dilution series in DMSO of the test ligands.
# (§5) Made a 5 nM solution of the radioactive tracer in buffer.
# (§6) Mixed 250 μl diluted tracer with 5 μl of the test ligand from each concentration of the dilution series.
# (§7) Washed the receptor-coated flash plates.
# (§8) Added 200 μl per well of the ligand/radiolabel mixture to the receptor-coated flash plates.
# (§9) Wrapped the plates in aluminum foil and incubate at +4° C. over night.
# (§10) Aspirated wells, and wash the flashed plates. Sealed the plate.
# (§11) Measured the remaining radioactivity in the plate.
# human LXRα = molecular target: T2, human LXRα (Homo sapiens, UniProt Q13133); assay: Ligand-binding test procedure for human LXRα (3H T0901317 competition, flash plates); details: biotinylated hLXRα, tracer 3H T0901317
# T2 construct: biotin (biotinylated; biotinylation tag not described); made in house; host or cells: E. coli
# T2 sequence (Q13133 1-447): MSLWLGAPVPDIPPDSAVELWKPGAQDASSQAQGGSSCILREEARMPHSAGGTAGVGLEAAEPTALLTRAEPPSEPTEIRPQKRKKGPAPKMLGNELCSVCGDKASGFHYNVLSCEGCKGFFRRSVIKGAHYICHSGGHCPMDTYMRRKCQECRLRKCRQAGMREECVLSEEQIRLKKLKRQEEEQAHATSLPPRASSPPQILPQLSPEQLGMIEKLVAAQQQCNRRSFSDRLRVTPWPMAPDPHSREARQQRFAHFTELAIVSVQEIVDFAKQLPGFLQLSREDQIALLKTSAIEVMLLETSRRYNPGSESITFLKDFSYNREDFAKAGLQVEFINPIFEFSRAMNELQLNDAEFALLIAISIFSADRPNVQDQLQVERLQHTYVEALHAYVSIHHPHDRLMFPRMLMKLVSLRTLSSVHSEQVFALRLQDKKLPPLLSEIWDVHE
# Experimental: Ligand-Binding Test Procedure for Human LXRα.
# Receptor source: E. coli extract from cells expressing biotinylated hLXRα. Extract was made in a similar buffer as above, but with 50 mM TRIS.
# as §1, §2, §3, §4, §5, §6, §7, §8, §9, §10, §11
Structure (SMILES),Binding ratio a/b (human LXRβ),IC50 (human LXRβ),IC50 (human LXRα)
"O=C(O)CC1CCCc2c(OCc3cccc(-c4c(Cc5ccccc5)cnc5c(C(F)(F)F)cccc45)c3)cccc21 (stereo not drawn) [Example 37, [5-({3-[3-benzyl-8-(trifluoromethyl)quinolin-4-yl]benzyl}oxy)-1,2,3,4-tetrahydronaphthalen-1-yl]acetic acid]",7,0.019 µM,0.131 µM
"O=C(O)C1CCN(C(=O)c2cccc(COc3cccc(-c4c(Cc5ccccc5)cnc5c(C(F)(F)F)cccc45)c3)c2)CC1 [Example 40, 1-[3-({3-[3-benzyl-8-(trifluoromethyl)quinolin-4-yl]phenoxy}methyl)benzoyl]piperidine-4-carboxylic acid]",7,0.084 µM,0.559 µM
"O=C(O)c1ccc(F)cc1NCc1cccc(-c2c(Cc3ccccc3)cnc3c(C(F)(F)F)cccc23)c1 [Example 41, 2-({3-[3-benzyl-8-(trifluoromethyl)quinolin-4-yl]benzyl}amino)-4-fluorobenzoic acid]",7,0.05 µM,0.331 µM
"O=C(O)CCc1cccc(NCc2cccc(-c3c(Cc4ccccc4)cnc4c(C(F)(F)F)cccc34)c2)c1 [Example 43, 3-[3-({3-[3-benzyl-8-(trifluoromethyl)quinolin-4-yl]benzyl}amino)phenyl]propanoic acid]",6,0.002 µM,0.015 µM
"COc1cc(C(=O)O)ccc1OCc1cccc(-c2c(Cc3ccccc3)cnc3c(C(F)(F)F)cccc23)c1 [Example 45, 4-({3-[3-benzyl-8-(trifluoromethyl)quinolin-4-yl]benzyl}oxy)-3-methoxybenzoic acid]",6,0.358 µM,2.26 µM
"O=C(O)c1ccc2cc(NCc3cccc(-c4ccnc5c(C(F)(F)F)cccc45)c3)ccc2c1 [Example 46, 6-({3-[8-(trifluoromethyl)quinolin-4-yl]benzyl}amino)-2-naphthoic acid]",6,1.3 µM,8 µM
"Cc1cc(NCc2ccc(-c3c(Cc4ccccc4)cnc4c(C(F)(F)F)cccc34)s2)c(C)cc1CC(=O)O [Example 47, {4-[({5-[3-benzyl-8-(trifluoromethyl)quinolin-4-yl]-2-thienyl}methyl)amino]-2,5-dimethylphenyl}acetic acid]",6,0.002 µM,0.013 µM

# Results, then the compound that gave them:
Binding ratio a/b (human LXRβ),IC50 (human LXRβ),IC50 (human LXRα),Structure (SMILES)
7,0.131 µM,0.961 µM,"Cc1ccc(CC(=O)O)c(NCc2cccc(-c3c(Cc4ccccc4)cnc4c(C(F)(F)F)cccc34)c2)c1C [Example 35, [2-({3-[3-benzyl-8-(trifluoromethyl)quinolin-4-yl]benzyl}amino)-3,4-dimethylphenyl]acetic acid]"
7,0.191 µM,1.36 µM,"O=C(O)Cc1ccc(NCc2cncc(-c3c(Cc4ccccc4)cnc4c(C(F)(F)F)cccc34)c2)cc1 [Example 36, {4-[({5-[3-benzyl-8-(trifluoromethyl)quinolin-4-yl]pyridin-3-yl}methyl)amino]phenyl}acetic acid]"
7,0.008 µM,0.051 µM,"O=C(O)CC1CCc2c(OCc3cccc(-c4c(Cc5ccccc5)cnc5c(C(F)(F)F)cccc45)c3)cccc21 (stereo not drawn) [Example 38, [4-({3-[3-benzyl-8-(trifluoromethyl)quinolin-4-yl]benzyl}oxy)-2,3-dihydro-1H-inden-1-yl]acetic acid]"
7,0.101 µM,0.683 µM,"O=C(O)c1ccc2cc(OCc3cccc(-c4c(Cc5ccccc5)cnc5c(C(F)(F)F)cccc45)c3)ccc2c1 [Example 39, 6-({3-[3-benzyl-8-(trifluoromethyl)quinolin-4-yl]benzyl}oxy)-2-naphthoic acid]"
6,0.165 µM,1.05 µM,"Cn1cc(C(=O)O)c2cccc(NCc3cccc(-c4c(Cc5ccccc5)cnc5c(C(F)(F)F)cccc45)c3)c21 [Example 44, 7-({3-[3-benzyl-8-(trifluoromethyl)quinolin-4-yl]benzyl}amino)-1-methyl-1H-indole-3-carboxylic acid]"
